Measured values reported in patent publication US6534522B2, “Subtype-selective NMDA receptor ligands and the use thereof” (Warner-Lambert Company, priority 1995, dated 2003).
Counter-ions that a name gives are not always drawn. Like-named read-outs stand apart in the source and are kept apart here.

How the values were obtained:
Assay type in all cases: cell-based
NR1A/2C NMDA receptor = NR1A/2C NMDA receptor (Rattus norvegicus, UniProt P35439+Q00961); experiment: Xenopus oocyte expression system, two-electrode voltage clamp, NR1A/2C
Sequence of NR1A/2C NMDA receptor (Q00961 20-1237, other chains not shown): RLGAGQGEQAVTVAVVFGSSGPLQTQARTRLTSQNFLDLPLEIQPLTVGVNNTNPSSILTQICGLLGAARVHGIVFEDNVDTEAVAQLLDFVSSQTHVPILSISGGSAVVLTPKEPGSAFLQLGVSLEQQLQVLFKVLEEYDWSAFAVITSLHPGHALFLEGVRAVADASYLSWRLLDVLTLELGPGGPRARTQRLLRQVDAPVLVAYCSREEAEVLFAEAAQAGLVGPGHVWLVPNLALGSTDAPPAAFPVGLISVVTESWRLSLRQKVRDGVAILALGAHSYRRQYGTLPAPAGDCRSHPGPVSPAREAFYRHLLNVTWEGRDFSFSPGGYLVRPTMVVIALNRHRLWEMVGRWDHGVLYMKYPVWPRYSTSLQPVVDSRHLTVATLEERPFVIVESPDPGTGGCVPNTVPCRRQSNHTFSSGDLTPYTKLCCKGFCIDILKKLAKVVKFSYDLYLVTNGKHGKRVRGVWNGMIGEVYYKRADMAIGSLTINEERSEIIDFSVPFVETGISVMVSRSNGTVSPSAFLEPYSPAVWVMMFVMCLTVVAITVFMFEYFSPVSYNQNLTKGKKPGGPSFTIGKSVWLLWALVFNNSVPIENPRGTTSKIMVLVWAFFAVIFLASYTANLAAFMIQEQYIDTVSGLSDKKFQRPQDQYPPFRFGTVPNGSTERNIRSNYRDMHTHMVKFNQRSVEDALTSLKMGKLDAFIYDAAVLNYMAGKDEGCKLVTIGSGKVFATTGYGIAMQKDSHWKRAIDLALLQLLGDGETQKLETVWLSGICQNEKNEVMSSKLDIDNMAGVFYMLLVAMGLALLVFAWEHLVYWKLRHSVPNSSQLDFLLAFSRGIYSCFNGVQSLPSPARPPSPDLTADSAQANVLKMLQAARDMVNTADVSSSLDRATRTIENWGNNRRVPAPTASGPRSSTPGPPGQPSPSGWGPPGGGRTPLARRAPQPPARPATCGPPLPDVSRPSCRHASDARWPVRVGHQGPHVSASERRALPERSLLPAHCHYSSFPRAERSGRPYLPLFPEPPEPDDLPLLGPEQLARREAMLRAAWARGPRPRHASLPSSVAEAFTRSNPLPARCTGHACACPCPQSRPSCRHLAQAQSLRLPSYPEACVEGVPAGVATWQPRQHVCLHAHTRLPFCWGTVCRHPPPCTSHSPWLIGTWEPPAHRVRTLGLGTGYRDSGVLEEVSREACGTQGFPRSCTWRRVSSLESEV
Source text: (§1) Electrophysiological assays may be utilized to characterize the actions of potential subtype-selective ligands at NMDA receptors expressed in Xenopus oocytes. The ligand may be assayed at the different subunit combinations of cloned rat NMDA receptors corresponding to the four putative NMDA receptor subtypes (Moriyoshi et al., Nature (Lond.) 354:31-37 (1991); Monyer et al., Science (Washington, D.C.) 256:1217-1221 (1992); Kutsuwada et al., Nature (Lond.) 358:36-41 (1992); Sugihara et al., Biochem. Biophys. Res. Comm. 185:826-832 (1992)).
(§2) Using fixed saturating concentrations of agonists (glutamate 100 μM, glycine 1-10 μM depending on subunit combination), the inhibitory potency of a putative subtype-selective ligand may be assayed at the NMDA receptors assembled from NR1A/2A, NR1A/2B, NR1A/2C and NR1A/2D subunit combinations.
(§3) The Xenopus oocyte expression system. Mature female Xenopus laevis were anaesthetized (20-40 min) using 0.15% 3-aminobenzoic acid ethyl ester (MS-222) and 2-4 ovarian lobes were surgically removed. Oocytes at developmental stages IV-VI (Dumont, J. N., J. Morphol. 136:153-180 (1972)), were dissected from the ovary still surrounded by enveloping ovarian tissues. Follicle-enclosed oocytes were micro-injected with 1:1 mixtures of cRNA:NR1A+NR2A, 2B, 2C or 2D; injecting ˜2, 5, or 20 ng of RNA encoding each receptor subunit. NR1A encoding cRNA was injected alone at ˜20 ng. Oocytes were stored in Barth's medium containing (in mM): NaCl, 88; KCl, 1; CaCl2, 0.41; Ca(NO3)2, 0.33; MgSO4, 0.82; NaHCO3, 2.4; HEPES 5; pH 7.4, with 0.1 mg/mL gentamycin sulphate. While oocytes were still surrounded by enveloping ovarian tissues the Barth's medium was supplemented with 0.1% bovine serum. Oocytes were defolliculated 1-2 days following injections by treatment with collagenase (0.5 mg/mL Sigma Type I for 0.5-1 hr) (Miledi and Woodward, J. Physiol. (Lond.) 416:601-621 (1989)) and subsequently stored in serum-free medium.
(§4) Electrical recordings were made using a conventional two-electrode voltage clamp (Dagan TEV-200) over periods ranging between 3-21 days following injection. Oocytes were placed in a 0.1 mL recording chamber continuously perfused (5-15 mL min^−1) with frog Ringer's solution containing (in mM): NaCl, 115; KCl, 2; CaCl2, 1.8; HEPES, 5; pH 7.4. Drugs were applied by bath perfusion. When using the more rapid flow rates, half-times for mid-chamber solution changes were between 2-3 sec, however, exchange rates for drug solutions at the oocyte surface (i.e. beneath the vitelline envelope and among the tangles of microvilli) were probably considerably longer (Woodward et al., Mol. Pharmacol. 41:89-103 (1992)). Zero-Ca^2+/Ba^2+ Ringer had the composition (in mM): NaCl, 115; KCl, 2; BaCl2, 1.8; HEPES, 5; pH 7.4. Intraoocyte injections were made by pneumatic pressure-pulse ejection from micropipettes (Miledi and Parker, J. Physiol. (Lond.) 357:173-183 (1984)). Injection solutions of EGTA (40-400 mM) and BAPTA (50-500 mM) were made up in H2O, pH adjusted to 7.4 with KOH or HCl, and filtered to minimize plugging (Acrodisc-13, […]). Pressure was set between 200-400 kPa. The volume of injections was regulated by adjusting the time of pulses (0.1-1 sec) and was estimated by measuring the diameters of ejected droplets.
(§5) Concentration-inhibition curves were fit with equation 2.
(§6) I/Icontrol=1/(1+([antagonist]/10^−pIC50)^n) Eq. 2
(§7) in which Icontrol is the current evoked by agonists alone, pIC50=−log IC50, […] is the concentration of antagonist that produces half maximal inhibition, and n is the slope factor. For incomplete curves analysis by fitting was unreliable and IC50 values were calculated by simple regression over linear portions of the curves (Origin: Microcal Software).
(§8) Drugs were initially dissolved at concentrations of 10-100 mM in DMSO. Dilutions were then made to generate a series of DMSO stock solutions over the range 10 μM to 100 mM. Working solutions were made by 1000-3000 fold dilution of stocks into Ringer. […]

NR1A/2B NMDA receptor = NR1A/2B NMDA receptor (Rattus norvegicus, UniProt P35439+Q00960); experiment: Xenopus oocyte expression system, two-electrode voltage clamp, NR1A/2B
Sequence of NR1A/2B NMDA receptor (Q00960 27-1482, other chains not shown): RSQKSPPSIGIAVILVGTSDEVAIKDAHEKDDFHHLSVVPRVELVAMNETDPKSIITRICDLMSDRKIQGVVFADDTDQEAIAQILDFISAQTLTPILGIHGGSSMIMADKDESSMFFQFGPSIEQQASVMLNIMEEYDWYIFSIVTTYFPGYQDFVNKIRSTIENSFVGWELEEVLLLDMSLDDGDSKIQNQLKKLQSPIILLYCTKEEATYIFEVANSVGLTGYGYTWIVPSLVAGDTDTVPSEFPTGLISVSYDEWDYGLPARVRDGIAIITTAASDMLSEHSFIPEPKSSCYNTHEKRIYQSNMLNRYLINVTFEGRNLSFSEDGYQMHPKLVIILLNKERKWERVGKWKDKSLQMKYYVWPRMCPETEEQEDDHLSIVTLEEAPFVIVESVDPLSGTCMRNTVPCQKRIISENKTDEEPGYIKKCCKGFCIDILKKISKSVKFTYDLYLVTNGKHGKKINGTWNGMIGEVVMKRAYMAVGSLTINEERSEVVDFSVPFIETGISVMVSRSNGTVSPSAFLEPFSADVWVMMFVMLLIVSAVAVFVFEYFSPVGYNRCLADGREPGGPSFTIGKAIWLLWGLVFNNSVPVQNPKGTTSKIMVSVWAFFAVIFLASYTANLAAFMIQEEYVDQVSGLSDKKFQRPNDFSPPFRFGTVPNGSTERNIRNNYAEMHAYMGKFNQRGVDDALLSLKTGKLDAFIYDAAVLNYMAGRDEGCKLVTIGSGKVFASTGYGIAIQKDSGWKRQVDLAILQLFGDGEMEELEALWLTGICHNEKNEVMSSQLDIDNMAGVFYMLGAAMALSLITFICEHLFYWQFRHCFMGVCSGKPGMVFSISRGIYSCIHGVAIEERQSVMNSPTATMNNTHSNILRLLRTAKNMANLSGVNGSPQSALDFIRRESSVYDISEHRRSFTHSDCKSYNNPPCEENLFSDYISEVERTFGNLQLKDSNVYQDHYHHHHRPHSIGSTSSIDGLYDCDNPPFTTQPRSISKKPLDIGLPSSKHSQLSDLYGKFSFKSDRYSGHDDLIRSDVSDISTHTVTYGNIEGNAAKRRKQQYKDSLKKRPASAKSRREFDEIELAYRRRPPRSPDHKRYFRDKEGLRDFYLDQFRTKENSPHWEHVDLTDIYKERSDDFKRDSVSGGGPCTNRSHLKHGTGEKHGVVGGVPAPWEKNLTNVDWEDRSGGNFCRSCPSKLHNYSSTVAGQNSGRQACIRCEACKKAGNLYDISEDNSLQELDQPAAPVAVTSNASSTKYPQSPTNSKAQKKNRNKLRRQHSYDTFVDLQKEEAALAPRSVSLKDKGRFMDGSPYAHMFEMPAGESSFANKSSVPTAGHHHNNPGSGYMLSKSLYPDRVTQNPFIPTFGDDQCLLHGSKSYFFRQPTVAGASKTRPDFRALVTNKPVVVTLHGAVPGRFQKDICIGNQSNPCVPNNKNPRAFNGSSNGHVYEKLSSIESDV
Source text: as §1, §2, §3, §4, §5, §6, §7, §8

NR1A/2A NMDA receptor = NR1A/2A NMDA receptor (Rattus norvegicus, UniProt P35439+Q00959); experiment: Xenopus oocyte expression system, two-electrode voltage clamp, NR1A/2A
Sequence of NR1A/2A NMDA receptor (Q00959 20-1464 limits assumed, other chains not shown): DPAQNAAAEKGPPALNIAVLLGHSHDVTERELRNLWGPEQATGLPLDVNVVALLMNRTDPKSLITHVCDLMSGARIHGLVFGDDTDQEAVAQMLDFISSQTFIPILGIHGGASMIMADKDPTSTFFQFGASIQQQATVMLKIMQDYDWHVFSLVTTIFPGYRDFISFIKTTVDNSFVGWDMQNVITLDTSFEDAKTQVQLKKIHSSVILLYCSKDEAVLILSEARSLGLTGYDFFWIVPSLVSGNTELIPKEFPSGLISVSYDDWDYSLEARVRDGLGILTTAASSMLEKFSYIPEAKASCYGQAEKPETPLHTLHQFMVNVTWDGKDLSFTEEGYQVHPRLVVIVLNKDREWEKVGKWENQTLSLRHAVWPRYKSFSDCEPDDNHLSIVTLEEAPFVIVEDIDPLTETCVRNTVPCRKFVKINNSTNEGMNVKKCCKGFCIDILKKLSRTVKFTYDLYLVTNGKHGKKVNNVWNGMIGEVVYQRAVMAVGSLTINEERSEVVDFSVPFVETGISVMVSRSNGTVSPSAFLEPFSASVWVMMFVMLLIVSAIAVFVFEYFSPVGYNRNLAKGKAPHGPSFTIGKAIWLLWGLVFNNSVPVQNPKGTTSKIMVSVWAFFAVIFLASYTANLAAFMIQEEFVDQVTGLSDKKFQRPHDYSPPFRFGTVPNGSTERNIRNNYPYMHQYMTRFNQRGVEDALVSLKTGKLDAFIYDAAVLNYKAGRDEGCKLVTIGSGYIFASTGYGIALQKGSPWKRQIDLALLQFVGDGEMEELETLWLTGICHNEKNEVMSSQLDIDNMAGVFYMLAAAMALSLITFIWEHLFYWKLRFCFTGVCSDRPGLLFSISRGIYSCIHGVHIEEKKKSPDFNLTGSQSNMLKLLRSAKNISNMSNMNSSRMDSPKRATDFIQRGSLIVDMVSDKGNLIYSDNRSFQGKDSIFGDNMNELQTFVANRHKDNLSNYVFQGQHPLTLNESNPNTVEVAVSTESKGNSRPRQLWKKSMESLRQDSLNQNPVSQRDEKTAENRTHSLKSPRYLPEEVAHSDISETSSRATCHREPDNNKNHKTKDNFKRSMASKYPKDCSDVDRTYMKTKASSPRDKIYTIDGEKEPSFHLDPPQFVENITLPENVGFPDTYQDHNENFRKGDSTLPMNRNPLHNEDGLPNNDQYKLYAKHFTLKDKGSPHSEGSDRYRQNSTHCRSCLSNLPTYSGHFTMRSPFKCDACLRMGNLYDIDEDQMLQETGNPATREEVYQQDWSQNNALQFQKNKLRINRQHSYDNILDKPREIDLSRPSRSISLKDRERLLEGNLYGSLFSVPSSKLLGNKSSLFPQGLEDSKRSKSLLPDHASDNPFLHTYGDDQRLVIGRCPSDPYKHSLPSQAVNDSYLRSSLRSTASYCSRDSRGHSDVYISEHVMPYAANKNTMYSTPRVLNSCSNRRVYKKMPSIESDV
Source text: as §1, §2, §3, §4, §5, §6, §7, §8

[1] = cloned NR1A/2C subunits expressed in Xenopus oocytes, inhibition of agonist-evoked membrane current, read-out: 1A/2C IC50
[2] = cloned NR1A/2B subunits expressed in Xenopus oocytes, inhibition of agonist-evoked membrane current, read-out: 1A/2B IC50
[3] = cloned NR1A/2A subunits expressed in Xenopus oocytes, inhibition of agonist-evoked membrane current, read-out: 1A/2A IC50

Molecule | IC50 (NR1A/2C NMDA receptor; [1]) | IC50 (NR1A/2B NMDA receptor; [2]) | IC50 (NR1A/2A NMDA receptor; [3]) | IC50 (NR1A/2C NMDA receptor) | IC50 (NR1A/2B NMDA receptor) | IC50 (NR1A/2A NMDA receptor)
1-(2-Phenylethyl)-4-benzylidenepiperidine [Ex. 15] | 230 µM | 5.5 µM | 60 µM |  |  | 
CCCCCCN1CCC(Cc2ccccc2)CC1 [(A), 4-benzyl-1-hexylpiperidine] | > 300 µM | 5 µM | > 300 µM |  |  | 
CCCCN1CCC(Cc2ccccc2)CC1 [(B), 4-benzyl-1-butylpiperidine] | > 300 µM | 25 µM | > 300 µM |  |  | 
O=C(c1cccc(F)c1)C1CCN(CCCCc2ccccc2)CC1 [(C), 4-(3′-fluorobenzoyl)-1-(4″-phenylbutyl)piperidine] | > 300 µM | 10 µM | > 300 µM |  |  | 
NC(=O)CCCCN1CCC(Cc2ccccc2)CC1 [Ex. 2, 4-Benzylpiperidylpentamide] | > 300 µM | 1.6 µM | > 300 µM |  |  | 
NNC(=O)CCCCN1CCC(Cc2ccccc2)CC1 [Ex. 3, 4-Benzylpiperidylpentahydrazide] | > 300 µM | 4 µM | > 300 µM |  |  | 
C#CCCN1CCC(Cc2ccccc2)CC1 [Ex. 6, 4-benzyl-1-(3-Butynyl)piperidine] | > 300 µM | 2.3 µM | > 300 µM |  |  | 
C#CCCN1CCC(O)(c2ccc(Cl)cc2)CC1 [Ex. 7, 1-(3-Butynyl)-4-(p-chlorphenyl)-4-hydroxypiperidine] | > 300 µM | 65 µM | > 300 µM |  |  | 
Fc1cccc(C[P+](c2ccccc2)(c2ccccc2)c2ccccc2)c1 [Ex. 8, m-Fluorobenzyltriphenylphosphonium bromide] | > 300 µM | 65 µM | > 300 µM |  |  | 
Fc1cccc(C=C2CCN(Cc3ccccc3)CC2)c1 [Ex. 9, 1-Benzyl-4-(m-fluorobenzylidene)piperidine] | > 300 µM | 14 µM | 240 µM |  |  | 
O=C(CCCN1CCC(O)CC1)c1ccccc1 [Ex. 13, 4-(4-Hydroxypiperidinyl) butyrophenone] | 140 µM | 53 µM | 80 µM |  |  | 
OC1(Cc2ccccc2)CCN(CCCc2ccccc2)CC1 [Ex. 16, 4-Benzyl-4-hydroxy-1-(3-phenylpropyl)piperidine] | 80 µM | 17 µM | 20 µM |  |  | 
c1ccc(OCCN2CCc3ccccc3C2)cc1 [Ex. 18, N-(2-Phenoxyethyl)-1,2,3,4-tetrahydroisoquinoline] | > 100 µM | 35 µM | 140 µM |  |  | 
c1ccc(OCCCN2CCc3ccccc3C2)cc1 [Ex. 19, N-(3-Phenoxypropyl)-1,2,3,4-tetrahydroisoquinoline] | 275 µM | 10 µM | 75 µM |  |  | 
O=C(c1ccccc1)C1CCN(CCOc2ccccc2)CC1 [Ex. 27, 4-Benzoyl-1-(2-phenoxyethyl)piperidine] | > 300 µM | 50 µM | > 300 µM |  |  | 
O=C(Nc1ccc([N+](=O)[O-])cc1)N1CCC(Cc2ccccc2)CC1 [Ex. 30, 1-[2-aza-1-oxo-2-(4-nitrophenyl)ethyl]-4-benzylpiperidine] | > 100 µM | 8 µM | 95 µM |  |  | 
COC(=O)CCCCN1CCCC(Cc2ccccc2)C1 (stereo not drawn) [Ex. 34, 5-(3-Benzylpiperidinyl)valeric acid methyl ester] | > 300 µM | 240 µM | > 300 µM |  |  | 
CCOC(=O)CCCN1CCCC(Cc2ccccc2)C1 (stereo not drawn) [Ex. 35, 4-(3-Benzylpiperidinyl)butyric acid ethyl ester] | > 300 µM | 150 µM | > 300 µM |  |  | 
C=CCN1CCCCC1Cc1ccccc1 (stereo not drawn) [Ex. 38(A), 1-Allyl-2-benzylpiperidine, hydrobromide] |  |  |  | 65 µM | 72 µM | 25 µM
C=CC[N+]1(CC=C)CCCCC1Cc1ccccc1 (stereo not drawn) [Ex. 38(B), 2-benzyl-l,1-diallylpiperidinium iodide] | 50 µM | 50 µM | 28 µM |  |  | 
